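Step 1: Grow cells in 96-well plates. Step 2: Expose to compound for 48 hours at 5 concentrations. Step 3: Interpolate endpoints linearly; if unreached, use highest concentration. GI50: concentration for 50% inhibition of growth.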 Activity calls are given as the source filed them. No stated cut-off is given here; in the data, active = GI50 up to about 1.1 µM and inactive = higher.
Key:
Assay in all cases: growth of human tumour cells (NCI), 48 h
SR = tested on: SR
UACC-257 = tested on: UACC-257
786-0 = tested on: 786-0
Hs-578T = tested on: Hs-578T
PC-3 = tested on: PC-3
NCI-H23 = tested on: NCI-H23
HOP-92 = tested on: HOP-92
MOLT-4 = tested on: MOLT-4
SF-295 = tested on: SF-295
BT-549 = tested on: BT-549
OVCAR-8 = tested on: OVCAR-8
SK-MEL-2 = tested on: SK-MEL-2
MDA-N = tested on: MDA-N
NCI-H460 = tested on: NCI-H460
TK-10 = tested on: TK-10
MDA-MB-231 = tested on: MDA-MB-231
A549 = tested on: A549
HCT-15 = tested on: HCT-15
NCI-H226 = tested on: NCI-H226
SK-MEL-5 = tested on: SK-MEL-5
MCF7 = tested on: MCF7
SF-539 = tested on: SF-539
DU-145 = tested on: DU-145
HL-60 = tested on: HL-60
OVCAR-5 = tested on: OVCAR-5
RXF 393 = tested on: RXF 393
IGROV-1 = tested on: IGROV-1
HCT-116 = tested on: HCT-116
A498 = tested on: A498
HCC 2998 = tested on: HCC 2998
SNB-75 = tested on: SNB-75
NCI-H522 = tested on: NCI-H522
SNB-19 = tested on: SNB-19
T47D = tested on: T47D
KM12 = tested on: KM12
HOP-62 = tested on: HOP-62
SF-268 = tested on: SF-268
MDA-MB-435 = tested on: MDA-MB-435
SK-MEL-28 = tested on: SK-MEL-28
ACHN = tested on: ACHN
UO-31 = tested on: UO-31
U-251 = tested on: U-251
CAKI-1 = tested on: CAKI-1
Malme-3M = tested on: Malme-3M
COLO 205 = tested on: COLO 205
SW-620 = tested on: SW-620
SK-OV-3 = tested on: SK-OV-3
UACC-62 = tested on: UACC-62
NCI/ADR-RES = tested on: NCI/ADR-RES
M14 = tested on: M14
K562 = tested on: K562
OVCAR-3 = tested on: OVCAR-3
HT-29 = tested on: HT-29
SN12C = tested on: SN12C
CCRF-CEM = tested on: CCRF-CEM
EKVX = tested on: EKVX
LOX IMVI = tested on: LOX IMVI
OVCAR-4 = tested on: OVCAR-4
RPMI-8226 = tested on: RPMI-8226

SMILES: c1ccc2c3c(c(N4CCOCC4)nc2c1)CCCC3
- GI50 (SR): 46.8 µM (inactive)
- GI50 (UACC-257): 40.8 µM (inactive)
- GI50 (786-0): 32.8 µM (inactive)
- GI50 (Hs-578T): 76.6 µM (inactive)
- GI50 (PC-3): 36.6 µM (inactive)
- GI50 (NCI-H23): 56.5 µM (inactive)
- GI50 (HOP-92): 67.1 µM (inactive)
- GI50 (MOLT-4): 30 µM (inactive)
- GI50 (SF-295): 39.6 µM (inactive)
- GI50 (BT-549): 39.7 µM (inactive)
- GI50 (OVCAR-8): 57.5 µM (inactive)
- GI50 (SK-MEL-2): 42.8 µM (inactive)
- GI50 (MDA-N): 50.4 µM (inactive)
- GI50 (NCI-H460): 34.7 µM (inactive)
- GI50 (TK-10): 63.4 µM (inactive)
- GI50 (MDA-MB-231): 32.1 µM (inactive)
- GI50 (A549): 43.1 µM (inactive)
- GI50 (HCT-15): 35.3 µM
- GI50 (NCI-H226): 19.6 µM (inactive)
- GI50 (SK-MEL-5): 20.2 µM (inactive)
- GI50 (MCF7): 29.5 µM (inactive)
- GI50 (SF-539): 20.8 µM (inactive)
- GI50 (DU-145): 33.3 µM (inactive)
- GI50 (HL-60): 14.2 µM (inactive)
- GI50 (OVCAR-5): 15.1 µM (inactive)
- GI50 (RXF 393): 19.8 µM (inactive)
- GI50 (IGROV-1): > 100 µM (inactive)
- GI50 (HCT-116): 40.6 µM (inactive)
- GI50 (A498): 24 µM (inactive)
- GI50 (HCC 2998): 32.4 µM (inactive)
- GI50 (SNB-75): 15.4 µM (inactive)
- GI50 (NCI-H522): 29.7 µM (inactive)
- GI50 (SNB-19): 36.9 µM (inactive)
- GI50 (T47D): 16 µM (inactive)
- GI50 (KM12): 38.2 µM (inactive)
- GI50 (HOP-62): 92.5 µM (inactive)
- GI50 (SF-268): 66.5 µM (inactive)
- GI50 (MDA-MB-435): 48.6 µM (inactive)
- GI50 (SK-MEL-28): 85.1 µM (inactive)
- GI50 (ACHN): 41.2 µM (inactive)
- GI50 (UO-31): 41.2 µM (inactive)
- GI50 (U-251): 36.6 µM (inactive)
- GI50 (CAKI-1): 64.7 µM (inactive)
- GI50 (Malme-3M): 75.2 µM (inactive)
- GI50 (COLO 205): 20 µM (inactive)
- GI50 (SW-620): 43.8 µM (inactive)
- GI50 (SK-OV-3): 86.1 µM (inactive)
- GI50 (UACC-62): 55.7 µM (inactive)
- GI50 (NCI/ADR-RES): 29.9 µM (inactive)
- GI50 (M14): 50.7 µM (inactive)
- GI50 (K562): 49.8 µM (inactive)
- GI50 (OVCAR-3): 36.6 µM (inactive)
- GI50 (HT-29): 22.7 µM (inactive)
- GI50 (SN12C): 34.2 µM (inactive)
- GI50 (CCRF-CEM): 31.9 µM (inactive)
- GI50 (EKVX): 12.5 µM (inactive)
- GI50 (LOX IMVI): 39.9 µM (inactive)
- GI50 (OVCAR-4): 49.9 µM (inactive)

SMILES: N/C(=N\Nc1nc2cc([N+](=O)[O-])ccc2o1)c1ccccn1
- GI50 (SR): 0.013 µM (active)
- GI50 (UACC-257): 0.0929 µM (active)
- GI50 (786-0): 0.0897 µM (active)
- GI50 (Hs-578T): 4.31 µM (inactive)
- GI50 (PC-3): 0.122 µM (active)
- GI50 (NCI-H23): 0.229 µM (active)
- GI50 (RPMI-8226): 0.123 µM (active)
- GI50 (HOP-92): 0.242 µM (active)
- GI50 (MOLT-4): 0.0621 µM (active)
- GI50 (SF-295): 0.207 µM (active)
- GI50 (BT-549): 0.335 µM (active)
- GI50 (OVCAR-8): 0.0474 µM (active)
- GI50 (SK-MEL-2): 0.167 µM (active)
- GI50 (MDA-N): 0.189 µM (active)
- GI50 (NCI-H460): 0.0468 µM (active)
- GI50 (TK-10): 0.193 µM (active)
- GI50 (MDA-MB-231): 0.114 µM (active)
- GI50 (A549): 0.163 µM (active)
- GI50 (HCT-15): 0.0287 µM
- GI50 (NCI-H226): 0.418 µM (active)
- GI50 (SK-MEL-5): 0.157 µM (active)
- GI50 (MCF7): 0.12 µM (active)
- GI50 (SF-539): 0.124 µM (active)
- GI50 (DU-145): 0.182 µM (active)
- GI50 (HL-60): 0.0594 µM (active)
- GI50 (OVCAR-5): 0.137 µM (active)
- GI50 (RXF 393): 0.0622 µM (active)
- GI50 (IGROV-1): 0.147 µM (active)
- GI50 (HCT-116): 0.0369 µM (active)
- GI50 (A498): 0.248 µM (active)
- GI50 (SNB-75): 0.817 µM (active)
- GI50 (NCI-H522): 0.043 µM (active)
- GI50 (SNB-19): 0.506 µM (active)
- GI50 (T47D): 0.073 µM (active)
- GI50 (KM12): 0.372 µM (active)
- GI50 (HOP-62): 0.232 µM (active)
- GI50 (SF-268): 0.0738 µM (active)
- GI50 (MDA-MB-435): 0.551 µM (active)
- GI50 (SK-MEL-28): 0.222 µM (active)
- GI50 (ACHN): 0.0802 µM (active)
- GI50 (U-251): 0.0966 µM (active)
- GI50 (CAKI-1): 0.16 µM (active)
- GI50 (Malme-3M): 0.401 µM (active)
- GI50 (COLO 205): 0.0366 µM (active)
- GI50 (SW-620): 0.113 µM (active)
- GI50 (SK-OV-3): 0.403 µM (active)
- GI50 (UACC-62): 0.0574 µM (active)
- GI50 (NCI/ADR-RES): 0.0404 µM (active)
- GI50 (M14): 0.144 µM (active)
- GI50 (K562): 0.0673 µM (active)
- GI50 (OVCAR-3): 0.0422 µM (active)
- GI50 (HT-29): 0.0493 µM (active)
- GI50 (SN12C): 0.189 µM (active)
- GI50 (CCRF-CEM): < 0.0223 µM (active)
- GI50 (EKVX): 0.0257 µM (active)
- GI50 (LOX IMVI): 0.071 µM (active)
- GI50 (OVCAR-4): 0.179 µM (active)

Reference: ChEMBL document CHEMBL1201862, “PubChem BioAssay data set” (2004)
